According to ChEMBL document CHEMBL2203051, “Synthesis of new opioid derivatives with a propellane skeleton and their pharmacologies: part 3, novel propellane derivatives with pentacyclic skeletons” (Bioorg Med Chem Lett, 2012):

How the values were obtained:
Mus musculus = species: Mus musculus; experiment: Selectivity ratio of Ki for delta opioid receptor mouse whole brain without cerebellum to Ki for kappa opioid receptor in mouse whole brain without cerebellum
[1] = Selectivity ratio of Ki for mu opioid receptor in […] to Ki for kappa opioid receptor in mouse whole brain without cerebellum
[2] = target: Kappa-type opioid receptor (Mus musculus, UniProt P33534); experiment: Displacement of [3H]U-69,593 from kappa opioid receptor in mouse whole brain without cerebellum
[3] = target: Delta-type opioid receptor (Mus musculus, UniProt P32300); experiment: Displacement of [3H][…] from delta opioid receptor in mouse whole brain without cerebellum
Mu-type opioid receptor = Mu-type opioid receptor (Cavia porcellus, UniProt P97266); experiment: Displacement of [3H]DAMGO from mu opioid receptor in […]
Chain of Mu-type opioid receptor (P97266 whole entry): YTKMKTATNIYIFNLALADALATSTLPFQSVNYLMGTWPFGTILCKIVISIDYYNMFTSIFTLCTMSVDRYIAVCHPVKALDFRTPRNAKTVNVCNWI

Chain of Kappa-type opioid receptor (P33534 whole entry): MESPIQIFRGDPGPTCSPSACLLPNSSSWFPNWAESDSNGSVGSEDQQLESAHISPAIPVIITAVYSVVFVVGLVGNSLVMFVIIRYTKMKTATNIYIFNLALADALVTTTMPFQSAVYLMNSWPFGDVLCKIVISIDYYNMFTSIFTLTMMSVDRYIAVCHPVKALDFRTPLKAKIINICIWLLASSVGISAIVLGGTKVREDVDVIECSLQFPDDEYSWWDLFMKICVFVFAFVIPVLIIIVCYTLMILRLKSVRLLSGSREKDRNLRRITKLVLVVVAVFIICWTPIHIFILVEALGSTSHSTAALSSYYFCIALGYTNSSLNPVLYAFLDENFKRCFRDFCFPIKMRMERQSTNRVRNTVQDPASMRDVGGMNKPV
Chain of Delta-type opioid receptor (P32300 whole entry): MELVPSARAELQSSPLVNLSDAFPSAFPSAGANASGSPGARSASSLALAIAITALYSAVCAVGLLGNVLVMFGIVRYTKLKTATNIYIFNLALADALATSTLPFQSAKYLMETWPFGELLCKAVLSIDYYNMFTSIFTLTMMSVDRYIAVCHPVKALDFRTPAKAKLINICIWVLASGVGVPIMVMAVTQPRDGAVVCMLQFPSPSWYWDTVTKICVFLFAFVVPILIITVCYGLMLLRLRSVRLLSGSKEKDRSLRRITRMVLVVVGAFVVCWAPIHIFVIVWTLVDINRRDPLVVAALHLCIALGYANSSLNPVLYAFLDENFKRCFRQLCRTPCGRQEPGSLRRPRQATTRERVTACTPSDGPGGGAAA

Compound | Ratio Ki (Mus musculus) | Ratio Ki [1] | Ki [2] | Ki [3] | Ki (Mu-type opioid receptor)
O=C1CC23CCN(CC4CC4)C4C[C@@H](O)C1CC42Cc1ccc(O)cc13 (stereo not given in full) | 8.9 | 1.72 | 7.63 nM | 67.9 nM | 13.1 nM
O=C1CC23CCN(CC4CC4)C4CCC1CC42Cc1ccc(O)cc13 (stereo not given) | 52 | 3.82 | 0.84 nM | 43.6 nM | 3.21 nM
O=C1CC2N(CC3CC3)CCC34CC(=O)C1CC23Cc1ccc(O)cc14 (stereo not given) | 7.26 | 3.31 | 56.5 nM | 410 nM | 187 nM
O=C1CC23CCN(CC4CC4)C4C=CC1CC42Cc1ccc(O)cc13 (stereo not given) | 27.2 | 9.17 | 1.92 nM | 52.2 nM | 17.6 nM
O=C1CC23CCN(CC4CC4)C4C[C@H](O)C1CC42Cc1ccc(O)cc13 (stereo not given in full) | 8.72 | 4.22 | 16.7 nM | 146 nM | 70.7 nM
